Source: paper PMC9503446, “Effects of Medicinal Leech-Related Cationic Antimicrobial Peptides on Human Blood Cells and Plasma” (Molecules, 2022)
No end group written: not given here.

How the values were obtained:
isolated neutrophils = test: Luminol-dependent chemiluminescence, neutrophil respiratory burst; assay type: cell-based, human
Procedure: Neutrophils and plasma were obtained from the same person. Plasma diluted five times in complete Krebs–Ringer buffer solution was treated with 50 μM or 200 μM CAMP, with plasma dilution and CAMP concentrations being the same as in the samples for hemolysis assay. The final plasma content in samples for CL measurement was restricted to no higher than 2%, since plasma constituents can inhibit luminol-dependent CL due to the scavenging effect. Following the addition of luminol to neutrophils, light emission recording was started. Spontaneous cell activation, if it occurred, was allowed to complete, and then the CAMP-containing plasma or control plasma was added (Figure 6), yielding a final plasma dilution of 1:50 and a final CAMP concentration of 5 μM or 20 μM. […] The effect was dose-dependent (Figure 6).
Chemiluminescence study was conducted at 37 °C with a Lum-1200 chemiluminometer (DISoft Llc, Moscow, Russia) measuring the intensity of emitted light in volts. Assays were performed with the following components in a total volume of 500 μL:435 μL of neutrophil suspension (final, 0.5 × 10^6 cells/mL) in complete Krebs–Ringer buffer solution, 10 μL of luminol (final, 200 μM), 50 μL of five-fold diluted (in the above buffer solution) autologous plasma containing or not containing CAMP at a desired concentration, 5 μL of PMA (final, 160 nM).
Neutrophils were placed in chemiluminometer cuvettes and equilibrated at 37 °C in the cuvette holder, after which luminol was added to each sample and the light emission was continuously recorded. In desired time intervals, plasma mixed with CAMP (or control plasma) and then PMA were added.

[1] = tested on: neutrophils in whole blood; test: Neutrophil extracellular trap (NET) assay in whole blood; assay type: cell-based, human
Procedure: EDTA-anticoagulated capillary blood was obtained via a finger prick. Blood aliquots of 20 μL were placed in 1.5 mL Eppendorf tubes and mixed with 2 μL of a CAMP solution (or 2 μL of PBS in controls). The samples were incubated for 3 h. After the first 1 h, PMA (100 nM final concentration) was added to a part of them, and incubation continued for a further 2 h. Cell settling was prevented by continuous gentle turning the tubes up and down using a Multi Bio RS-24 rotator (Biosan, Riga, Latvia). The blood was retained at the tube bottom by surface tension.
NET counts were performed using standardized blood smears stained by Romanowsky method. The smears were examined using a Motic B microscope (Motic, Xiamen, China). Quantitative assessment of NETs was performed as described previously. NETs among 300–500 leukocytes were counted in the middle third part of the smear, and the NETs-to-leukocyte percentage ratio was calculated. Based on counting results, the number of NETs in 1 μL of blood was calculated. In each experiment, two parallel samples were prepared and three parallel smears were taken from each at each observation point.

[2] = tested on: blood plasma coagulation (intrinsic and final common pathways); test: Plasma coagulation assay, activated partial thromboplastin time (APTT); design: species or system human; conditions: for APTT change from the control value: 25, 50, 100 μM peptide in plasma
Procedure: (§1) Plasma samples (50 μL) were incubated for 15 min at room temperature with 0, 25, 50 or 100 μM CAMP, and then the coagulation assay steps were carried out according the manufacturer’s instructions.
(§2) The plasma coagulation tests were performed using an APG4-03-Pkh hemostasis analyzer (EMCO Llc, Moscow, Russia) and MLT-APTT and MLT-THROMBOPLASTIN reagent kits (MLT Llc, Moscow, Russia) according to the manufacturer’s instructions. Testing was performed on Plasma N (normal), a mixed pool of citrate anticoagulated plasma obtained from healthy donors, manufactured by RENAM Rpd, Moscow, Russia. Fifty microliter plasma samples supplemented with CAMPs at different concentrations (or with PBS as control) were pre-incubated at room temperature for 15 min. Afterward, in case of measuring activated partial thromboplastin time (APTT), 50 μL of APTT Reagent were added. The samples were warmed at 37 °C for 3 min, and 50 μL of Calcium Chloride Solution were added to initiate fibrin clot formation. For measuring prothrombin time (PT), pre-incubated plasma samples were warmed at 37 °C for 1 min, and fibrin clot formation was triggered by adding 100 μL of Thromboplastin Reagent.

[3] = tested on: blood plasma coagulation (extrinsic and common pathways); test: Plasma coagulation assay, prothrombin time (PT); design: species or system human; conditions: 25, 50, 100 μM peptide in plasma
Procedure: as §1, §2

Escherichia coli = conditions: cited from earlier work
Description: Table 1 Cationic antimicrobial peptides (CAMPs) used in this study and their characteristics. | column: MIC, μM (E. coli)

Molecule	APTT change from the control value [2]	Effect on PT [3]	MIC (E. coli) (Escherichia coli) [µM]	further results
CCCCCCCCCCCCCC(=O)O[C@@H]1[C@@H](C)[C@@]2(O)[C@@H](C=C(CO)C[C@]3(O)C(=O)C(C)=C[C@@H]23)[C@@H]2C(C)(C)[C@]12OC(C)=O [PMA, phorbol-12-myristate-13-acetate, reference compound]	–	–	–	ROS production by neutrophils (luminol-dependent chemiluminescence) (isolated neutrophils; PMA added after CAMP-containing plasma, final 160 nM): induced a high ROS production; Neutrophil activation in whole blood (morphology) ([1]; 100 nM, with or without CAMPs): resulted in neutrophil activation
FLIGKAIKRKFCLRSVWNA [pept_7, synthetic short cationic antimicrobial peptide designed by bioinformatic analysis of the medicinal leech genome and microbiome]	did not cause significant changes	did not cause significant changes	14.3	–
KFKKVIWKSFL-NH2 (C-terminus assumed) [pept_4]	No significant APTT change	not significantly affected	90	Neutrophil respiratory burst (luminol-dependent chemiluminescence) in response to peptide-pretreated plasma (isolated neutrophils; final peptide 5 μM or 20 μM, final plasma dilution 1:50, 37 °C): no development of the respiratory burst; NET concentration versus control blood ([1]; 100 μM peptide, ex vivo blood, 3 h, 37 °C, no PMA): No significant difference
RAVIYKIPYNAIASRWIIAPKKC [pept_8, synthetic short cationic antimicrobial peptide designed by bioinformatic analysis of the medicinal leech genome and microbiome]	–	–	24	APTT prolongation versus control ([2]; 100 μM peptide in plasma, 15 min pre-incubation at room temperature): about 45%
RLKRFKRVALRREKTARNFRSIVS [pept_6, synthetic short cationic antimicrobial peptide designed by bioinformatic analysis of the medicinal leech genome and microbiome]	–	no significant effect	>100	APTT increase over the control value ([2]; 25 μM peptide in plasma): 1.3 fold; APTT increase over the control value ([2]; 50 μM peptide in plasma): 2.1 fold; APTT increase over the control value ([2]; 100 μM peptide in plasma): 2.9 fold
